What all share (assay): growth of human tumour cells (NCI), 48 h
The test system of assay [1] is SK-OV-3 ovarian.
Assay [2] concerns OVCAR-4 ovarian.
For assay [3], the system named is HT29 colon.
The test system of assay [4] is HOP-62 NSCLC.
Assay [5] has as its system HCT-116 colon.
Assay [6] deals with UACC-257 melanoma.
The test system of assay [7] is A549 NSCLC.
In assay [8] the test system is SNB-19 CNS.
Assay [9] has as its system OVCAR-3 ovarian.
The test system of assay [10] is CCRF-CEM leukemia.

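Results reflect a 48-hour exposure of cells in 96-well plates to compound at five concentrations. Here, GI50 denotes the concentration required for 50% inhibition of growth. TGI: concentration producing complete growth inhibition.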 Some results are limits rather than exact numbers.

For `COc1ccc(C(=O)C(c2ccc(OC)cc2)C2(O)C(=O)Nc3c2ccc(Cl)c3C)cc1` (stereo not given), the TGI in assay [1], in assay [2], in assay [3], in assay [4], in assay [5] and in assay [6] was > 100 µM each time. Also, the TGI in assay [7], in assay [8], in assay [9] and in assay [10] was > 100 µM in each case.

With `COC(=O)C1=CC2C(=O)OC1CC2C#N` (stereo not given), the TGI in assay [1], in assay [2], in assay [3], in [4], in assay [5] and in assay [6] was > 100 µM throughout. In addition, the TGI in [7], in assay [8], in assay [9] and in assay [10] was > 100 µM throughout.

Regarding `CCc1ccc(NC(=O)COC(=O)c2cc([N+](=O)[O-])ccc2Sc2nnnn2C)cc1`, the GI50 in assay [1] is 27.1 µM; in assay [2] it was 12.9 µM; in [3], 11.1 µM; in [4], 15.2 µM; in assay [5] it was 6.76 µM; in [6], 19.3 µM. Moreover, the GI50 in assay [7] is 19.7 µM; in assay [8] it was 16.5 µM; in assay [9], 11.7 µM; in assay [10], 9.11 µM. In addition, the TGI in [1] was > 100 µM; in assay [2], 26.9 µM; in assay [3] it was 29.3 µM; in assay [4] it was 36 µM; in [5], 20.2 µM; in assay [6] it was 61.2 µM. Besides, the TGI in assay [7] is 53.1 µM; in assay [8], 52.1 µM; in assay [9], 25.4 µM; in assay [10], 78.3 µM.

For the molecule `CC[C@H](CO)Nc1nc(NCc2ccccc2)n2ncc(C(C)C)c2n1`, the GI50 in [1] is 5.55 µM; in [2], 2.58 µM; in [3], 2 µM; in assay [4], 2.1 µM; in [5], 0.51 µM; in [6], 3.56 µM. For the same molecule, the GI50 in assay [7] was 1.58 µM; in [8], 1.44 µM; in assay [9] it was 1.15 µM; in assay [10] it was 0.648 µM. Besides, the TGI in assay [1] amounted to 40.2 µM; in assay [2] it was 37 µM; in assay [3], 15.5 µM; in [4] it was 8.72 µM; in [5] it was 15 µM; in [6] it was 15 µM. The TGI stood at 41.4 µM in [7], 12.3 µM in [8], 4.6 µM in assay [9] and 9.26 µM in [10].

For `Cc1ccc(Nc2nc(C)c(C(/C=C/c3ccc(/C=C/C(=N/NC(=O)C[n+]4ccccc4)c4sc(Nc5ccc(C)cc5[N+](=O)[O-])nc4C)cc3)=N\NC(=O)C[n+]3ccccc3)s2)c([N+](=O)[O-])c1`, the TGI in assay [1], in [2], in assay [3], in assay [4], in [5] and in assay [6] was > 100 µM each time. Also, the TGI in assay [7], in assay [8], in assay [9] and in assay [10] was > 100 µM each time.

Turning to `Cc1[nH]c2ccccc2c1C1Cc2ccccc2N1C(=O)/C=C/C(=O)O` (stereo not given), the TGI in assay [1], in [2], in assay [3], in [4], in assay [5] and in assay [6] was > 100 µM each time. Further, the TGI in assay [7], in assay [8], in [9] and in assay [10] was > 100 µM each time.

As to `CCOc1ccccc1N=Nc1c(C)[nH]n(-c2nc(-c3ccccc3)cs2)c1=O`, the GI50 in assay [1] was 38.9 µM; in assay [2], 25 µM; in assay [3] it was 97.9 µM; in [4], 35.1 µM; in assay [5], 52.3 µM; in [6], 52.5 µM. The GI50 in [7] was 49.9 µM; in [8], 43.1 µM; in assay [9] it was 57.7 µM; in [10], > 100 µM. Also, the TGI is > 100 µM in [1]; > 84.5 µM in [2]; > 100 µM in [3]; > 100 µM in assay [4]; > 100 µM in assay [5]; > 100 µM in [6]. For the same molecule, the TGI in assay [7], in [8], in assay [9] and in [10] was > 100 µM throughout.

As to `COc1cc(C(=O)NC2CCN(C)CC2)c(F)cc1Nc1ncc2c(n1)N(C1CCCC1)CC(F)(F)C(=O)N2C`, the GI50 in [1] was < 0.0132 µM; in assay [2], 0.396 µM; in [3], < 0.01 µM; in [4] it was < 0.0141 µM; in assay [5], < 0.0142 µM; in assay [6] it was 1.25 µM. For the same molecule, the GI50 in assay [7] was < 0.0184 µM; in [8], < 0.0281 µM; in assay [9] it was < 0.0155 µM; in assay [10] it was < 0.01 µM. Also, the TGI in assay [1] amounted to 1.02 µM; in assay [2], 14.1 µM; in assay [3], 11.1 µM; in assay [4] it was 13.2 µM; in assay [5] it was 12 µM; in [6] it was 10.9 µM. In addition, the TGI in assay [7] worked out at 2.31 µM; in assay [8], 17.1 µM; in assay [9], 5.87 µM; in [10], 3.58 µM.

On to `CC1=C2C(=CC(C)(C)C2O)C(=O)C(C)(O)C12CC2` (stereo not given), for which the TGI amounted to 0.175 µM in assay [1]; 0.0209 µM in [2]; 0.0311 µM in [3]; 0.0447 µM in [4]; 0.188 µM in [5]; 0.0442 µM in assay [6]. In addition, the TGI came out at 0.277 µM in assay [7], 0.17 µM in [8], 0.0494 µM in assay [9] and 0.126 µM in [10].

The record behind these values is PubChem BioAssay (NCI).
